Laboratory results reported in PMC6114082, “Synthesis of aminophenylhydroxamate and aminobenzylhydroxamate derivatives and in vitro screening for antiparasitic and histone deacetylase inhibitory activity” (International Journal for Parasitology: Drugs and Drug …, 2018).

Key:
[1] = Cytotoxicity, MTT assay, THP-1; format: cell-based, human; conditions: human, THP-1 cells (monocytic cell line); MTT assay
Description: (§1) The human monocytic cell line THP-1 was cultivated in RPMI medium supplemented with 10% FCS, 2 mM GlutaMAX, 100 U/ml penicillin, and 100 μg/ml streptomycin. HFF cells were cultivated in Dulbecco's modified Eagle's medium (DMEM) with Earle's salts containing 10% FCS, 10 mM HEPES, 1 mM sodium pyruvate, 2 mM GlutaMAX, 100 U/ml penicillin, and 100 μg/ml streptomycin. The THP-1 and HFF cells were maintained in a 5% CO2 incubator at 37 °C. Cytotoxicity was evaluated via the MTT assay, and the IC50 values were calculated using Prism software (Prism 4 for Mac OS X, version 5.0b, December, 2008).

[2] = system: THP-1 cells; test: Cytotoxicity, MTT assay, THP-1; format: cell-based, human
Description: as §1

[3] = system: L. tropica MHOM/BR/73/5-ASKM; test: Antileishmanial activity, L. tropica promastigotes; format: cell-based, Leishmania tropica; conditions: Leishmania tropica
Description: (§2) The antitrypanosomatid activity of the compounds was ascertained as follows. Leishmania parasites were cultured at 26 °C in SDM-79 medium supplemented with 10% fetal calf serum (FCS), and the antileishmanial activity was determined according to a previously published protocol for LUC-expressing and wild-type Leishmania ([Sereno et al., 2001], [Abbassi et al., 2008]). Trypanosoma brucei gambiense were grown at 26 °C in Cunningham's medium supplemented with 10% FCS, 2 mM GlutaMAX-1 (Gibco, USA), 100 U/ml penicillin, 100 μg/ml streptomycin and […] bovine hemin. The epimastigote form of Trypanosoma cruzi (strain Y cl7 scl2, lineage Tc2) (kindly provided by Philippe Truc and Christian Barnabé, UMR 177 IRD-CIRAD InterTryp, Montpellier, France) were grown at 26 °C in liver infusion tryptose (LIT) medium, supplemented with 10% FCS, 2 mM GlutaMAX™-I, 100 U/ml penicillin, 100 μg/ml streptomycin and bovine hemin (20 mg/l) (Gibco). The antitrypanosomatids activity was determined using a protocol that was initialy set up for wild-type Leishmania ([Abbassi et al., 2008]). To assess the drug activity on Toxoplasma gondii, confluent human foreskin fibroblast (HFF) monolayers were infected with YFP-type I Rh kindly provided by B. Striepen, see ([Striepen et al., 1998]) or Tomato-type II Pru kindly provided by N. Blanchard (Toulouse), expressing parasites at 5 × 10^4 per well, which were then centrifuged for 30 s at 1300 rpm and incubated for 30 min in a water bath at 37 °C to allow invasion. The wells were then washed three times with PBS to eliminate extracellular parasites, and the drugs were added at various concentrations ranging from 1 to 50 μM. After incubation for 24 h at 37 °C in a humidified atmosphere containing 5% CO2, the cells were fixed in 2.5% methanol-free formaldehyde (Tebu-bio)/PBS for 30 min at room temperature. Nuclei were stained with Hoechst 33258 (2 μg/ml, Molecular Probes) for 20 min and then washed three times with water for 10 min each time. The number of infected cells, i.e., cells harboring a parasitophorous vacuole, and the number of parasites per vacuole were determined using an Olympus ScanR microscope ( × 20 objective) and ScanR software. The parasitic index in % compared to the control was calculated as follows: (PI=((number of parasite/100 cells in treated wells) x (% of infected macrophage in treated well)/(number of parasite/100 cells in untreated wells) x (% of infected macrophage in untreated wells))*100).

[4] = Cytotoxicity, MTT assay, HFF; format: cell-based, human; conditions: human, HFF cells
Description: as §1

[5] = system: L. braziliensis MHOM/BR/75/M209; test: Antileishmanial activity, L. braziliensis promastigotes (luciferase expressing strain); format: cell-based, Leishmania braziliensis; conditions: Leishmania braziliensis
Description: as §2

[6] = system: Pru Type II strain of T. gondii; test: Anti-Toxoplasma activity in infected HFF monolayers, type II Pru strain; format: cell-based, Toxoplasma gondii; conditions: for IC50: 24 h, type II strain, in HFF
Description: as §2, with “The wells were then washed three times with PBS to eliminate extracellular parasites, and the drugs were added at various concentrations ranging from 1 to 50 μM. After incubation for 24 h at 37 °C in a humidified atmosphere containing 5% CO2, the cells were fixed in 2.5% methanol-free formaldehyde (Tebu-bio)/PBS for 30 min at room temperature. Nuclei were stained with Hoechst 33258 (2 μg/ml, Molecular Probes) for 20 min and then washed three times with water for 10 min each time.” left out

[7] = system: T. gondii deacetylase activity (total protein extract); test: Deacetylase activity of total protein extract of T. gondii tachyzoites; format: biochemical, Toxoplasma gondii; conditions: 0.125 μM
Description: (§3) The HDACi effect against HeLa nuclear extracts and recombinant proteins were measured using a fluorometric HDAC assay kit (Active Motif, Belgium) according to the manufacturer's instructions. […] A negative control containing trichostatin A at a final concentration of 2 μM was analyzed for each independent experiment.
HDAC activity was determined from total protein extracted from T. gondii.

[8] = molecular target: T1, HDAC 1 (Homo sapiens, UniProt Q13547); test: Fluorometric HDAC assay, recombinant HDAC1; format: biochemical
T1 construct: purchased Active Motif, Belgium
T1 sequence (Q13547 whole entry): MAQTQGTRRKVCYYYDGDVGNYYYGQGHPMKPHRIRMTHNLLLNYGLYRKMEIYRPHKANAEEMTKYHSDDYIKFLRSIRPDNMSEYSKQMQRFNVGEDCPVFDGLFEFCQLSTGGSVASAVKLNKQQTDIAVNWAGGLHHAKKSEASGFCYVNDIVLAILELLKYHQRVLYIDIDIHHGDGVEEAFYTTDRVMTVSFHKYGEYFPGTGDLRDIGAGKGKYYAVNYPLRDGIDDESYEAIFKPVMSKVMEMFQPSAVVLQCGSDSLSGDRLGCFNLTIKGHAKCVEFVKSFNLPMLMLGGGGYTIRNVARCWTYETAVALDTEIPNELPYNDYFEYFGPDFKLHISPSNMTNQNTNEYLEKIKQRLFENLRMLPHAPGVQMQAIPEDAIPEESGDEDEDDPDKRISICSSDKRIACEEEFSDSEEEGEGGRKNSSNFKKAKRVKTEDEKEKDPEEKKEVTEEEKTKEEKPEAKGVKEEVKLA
Description: The HDACi effect against HeLa nuclear extracts and recombinant proteins were measured using a fluorometric HDAC assay kit (Active Motif, Belgium) according to the manufacturer's instructions. Briefly, 30 μL of HeLa nuclear extract (Active Motif, Belgium) or various HDAC recombinant proteins (Active Motif, Belgium) was mixed with 5 μL of a 10 × compound and 10 μL of assay buffer. A negative control containing trichostatin A at a final concentration of 2 μM was analyzed for each independent experiment. A fluorogenic substrate (10 μL) was added, and the reaction was allowed to proceed for 30 min at room temperature and then stopped by the addition of a developer containing trichostatin A. The fluorescence was monitored after 30 min at excitation and emission wavelengths of 360 and 460 nm, respectively.

[9] = molecular target: T2, HDAC 8 (Homo sapiens, UniProt Q9BY41); test: Fluorometric HDAC assay, recombinant HDAC8; format: biochemical
T2 construct: purchased Active Motif, Belgium
T2 sequence (Q9BY41 1-377): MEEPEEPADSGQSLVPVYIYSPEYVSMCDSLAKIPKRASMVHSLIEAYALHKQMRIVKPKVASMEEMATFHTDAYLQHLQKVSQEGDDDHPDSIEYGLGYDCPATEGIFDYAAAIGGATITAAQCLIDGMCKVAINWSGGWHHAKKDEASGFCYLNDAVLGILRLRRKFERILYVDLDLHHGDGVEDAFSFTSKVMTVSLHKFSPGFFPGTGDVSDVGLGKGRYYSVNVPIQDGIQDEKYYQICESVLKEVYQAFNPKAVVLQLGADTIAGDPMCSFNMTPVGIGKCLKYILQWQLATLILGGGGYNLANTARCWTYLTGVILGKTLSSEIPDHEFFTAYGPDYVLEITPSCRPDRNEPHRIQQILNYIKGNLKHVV
Description: as §3

[10] = system: HeLa nuclear extract (HDAC 1, 2, 6, and 8 predominant); test: Fluorometric HDAC assay, HeLa nuclear extract; format: biochemical
Description: as §3

[11] = Cytotoxicity, HEPG2 cell line; format: cell-based, human; conditions: human, HepG2 cells
[12] = system: HEPG2 cells; test: Cytotoxicity, HEPG2 cell line; format: cell-based, human

For `COc1cccc(CC(=O)Nc2ccc(C(=O)NO)cc2)c1` [Compound 363, N-hydroxy-4-[2-(3-methoxyphenyl)acetamido]benzamide], the IC50 [1] was 3600 ± 500 nM, the “selectivity index, THP-1 cells vs T. gondii” value [2] was 10 and the IC50 [3] was greater than 60000 nM. For the same compound, the IC50 [4] was 105000 ± 10500 nM, the IC50 [5] was greater than 60000 nM and the “IS^a selectivity index for T. gondii, second value marked #” value ([6]; IC50 HFF / IC50 T. gondii type II Pru strain) was 46. The IC50 ([6]; Toxoplasma gondii) was 2250 nM, the IC50 [6] was 2270 nM and the “inhibition of T. gondii deacetylase activity” value [7] was 44%. For the same compound, the “Fold, HDAC 1” value ([8]; 363 as compared to SAHA) was 2.43, the IC50 ([8]; recombinant protein, read-out: rHDAC 1 IC50) was 257 ± 50 nM and the “Fold, HDAC 8” value ([9]; 363 as compared to SAHA) was 0.26. The IC50 ([9]; recombinant protein, read-out: rHDAC 8 IC50) was 863 ± 45 nM, the “HDACi effect, inhibition at single concentration” value ([10]; 1.0 μM, screen on HeLa nuclear extract and recombinant HDAC1, 3, 6, 8 (Fig. 2A)) was 90% and the IC50 ([10]; HeLa nuclear extract, read-out: HDACi HeLa IC50) was 85 ± 35 nM. For the same compound, the IC50 [11] was greater than 15000 nM and the “index of selectivity, HEPG2 vs T. gondii tachyzoites” value [12] was 42.
